Experiment [1] addresses Glutamate NMDA receptor; Grin1/Grin2a (Rattus norvegicus, UniProt P35439+Q00959). Description: Inhibition of recombinant rat GluN1a/GluN2A co-expressed in HEK293 cells assessed as suppression of glutamate-induced current by patch-clamp method. It is filed as cell-based. For orientation: In patch-clamp work, channel activity is measured electrically.
A short description of experiment [2]: Inhibition of NMDAR in rat hippocampal neurons assessed as suppression of NMDA-induced current by whole-cell patch-clamp method. The format is tissue-based. The settings on record: Hippocampus.
The target of experiment [3] is Glutamate NMDA receptor; Grin1/Grin2c (Rattus norvegicus, UniProt P35439+Q00961). Kind of experiment: Inhibition of recombinant rat GluN1a/GluN2C co-expressed in HEK293 cells assessed as suppression of glutamate-induced current by patch-clamp method. It is filed as cell-based.
A short description of experiment [4]: Inhibition of GABAR in rat hippocampal neurons assessed as suppression of GABA-induced current by whole-cell patch-clamp method. The format is tissue-based. Conditions: Hippocampus.
A short description of experiment [5]: Inhibition of AMPAR in rat hippocampal neurons assessed as suppression of AMPA-induced current by whole-cell patch-clamp method. The settings on record: Hippocampus. It is filed as tissue-based.
Experiment [6] addresses Glutamate NMDA receptor; Grin1/Grin2b (Rattus norvegicus, UniProt P35439+Q00960). Kind of experiment: Inhibition of recombinant rat GluN1a/GluN2B co-expressed in HEK293 cells assessed as suppression of glutamate-induced current by patch-clamp method. The format is cell-based.
For experiment [7], the target named is Ionotropic glutamate receptor NMDA 1/2D (Rattus norvegicus, UniProt P35439+Q62645). Kind of experiment: Inhibition of recombinant rat GluN1a/GluN2D co-expressed in HEK293 cells assessed as suppression of glutamate-induced current by patch-clamp method. The format is cell-based.

The structures appear in SMILES notation. pIC50: −log10 of the molar value.

Sequence of Glutamate NMDA receptor; Grin1/Grin2b (Q00960 whole entry, other chains not shown): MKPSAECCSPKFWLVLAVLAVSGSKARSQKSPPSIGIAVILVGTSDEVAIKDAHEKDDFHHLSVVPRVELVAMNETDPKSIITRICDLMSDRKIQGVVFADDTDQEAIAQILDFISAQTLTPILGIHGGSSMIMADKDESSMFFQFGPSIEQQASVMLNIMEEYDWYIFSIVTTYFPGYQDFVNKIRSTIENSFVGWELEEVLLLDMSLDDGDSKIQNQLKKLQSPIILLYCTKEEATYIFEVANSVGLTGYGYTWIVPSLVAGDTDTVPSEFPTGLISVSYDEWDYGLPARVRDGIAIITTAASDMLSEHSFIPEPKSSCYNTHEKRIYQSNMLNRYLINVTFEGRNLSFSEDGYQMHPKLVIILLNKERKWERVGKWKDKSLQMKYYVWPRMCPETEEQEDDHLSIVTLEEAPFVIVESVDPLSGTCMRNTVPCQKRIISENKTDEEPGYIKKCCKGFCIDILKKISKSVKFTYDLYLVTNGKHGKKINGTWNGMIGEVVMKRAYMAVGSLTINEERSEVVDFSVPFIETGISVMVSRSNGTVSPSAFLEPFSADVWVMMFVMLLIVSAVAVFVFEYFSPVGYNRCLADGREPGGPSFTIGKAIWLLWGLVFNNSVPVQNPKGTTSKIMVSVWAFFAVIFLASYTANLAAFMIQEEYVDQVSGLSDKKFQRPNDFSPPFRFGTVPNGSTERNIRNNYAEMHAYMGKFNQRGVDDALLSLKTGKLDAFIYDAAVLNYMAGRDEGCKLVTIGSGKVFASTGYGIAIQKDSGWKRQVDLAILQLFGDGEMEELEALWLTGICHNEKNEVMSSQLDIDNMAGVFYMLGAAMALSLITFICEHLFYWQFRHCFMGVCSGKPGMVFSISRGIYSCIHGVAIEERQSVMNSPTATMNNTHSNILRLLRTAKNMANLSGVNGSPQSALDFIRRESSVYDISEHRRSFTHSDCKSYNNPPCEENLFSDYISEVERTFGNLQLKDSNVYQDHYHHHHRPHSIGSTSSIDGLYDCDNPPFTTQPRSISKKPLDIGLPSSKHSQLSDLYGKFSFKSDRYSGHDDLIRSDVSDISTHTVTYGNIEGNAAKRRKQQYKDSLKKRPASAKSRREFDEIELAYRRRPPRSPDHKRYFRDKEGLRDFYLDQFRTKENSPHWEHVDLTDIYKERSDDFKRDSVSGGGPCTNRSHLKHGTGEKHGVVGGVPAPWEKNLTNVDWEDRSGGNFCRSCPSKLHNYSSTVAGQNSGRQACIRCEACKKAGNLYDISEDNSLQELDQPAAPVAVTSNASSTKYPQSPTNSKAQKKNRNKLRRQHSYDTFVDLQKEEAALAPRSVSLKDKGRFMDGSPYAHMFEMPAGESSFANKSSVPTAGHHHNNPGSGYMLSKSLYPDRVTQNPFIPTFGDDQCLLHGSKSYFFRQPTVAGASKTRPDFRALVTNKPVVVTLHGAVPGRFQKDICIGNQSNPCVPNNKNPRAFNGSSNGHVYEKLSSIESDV
Sequence of Glutamate NMDA receptor; Grin1/Grin2c (Q00961 whole entry, other chains not shown): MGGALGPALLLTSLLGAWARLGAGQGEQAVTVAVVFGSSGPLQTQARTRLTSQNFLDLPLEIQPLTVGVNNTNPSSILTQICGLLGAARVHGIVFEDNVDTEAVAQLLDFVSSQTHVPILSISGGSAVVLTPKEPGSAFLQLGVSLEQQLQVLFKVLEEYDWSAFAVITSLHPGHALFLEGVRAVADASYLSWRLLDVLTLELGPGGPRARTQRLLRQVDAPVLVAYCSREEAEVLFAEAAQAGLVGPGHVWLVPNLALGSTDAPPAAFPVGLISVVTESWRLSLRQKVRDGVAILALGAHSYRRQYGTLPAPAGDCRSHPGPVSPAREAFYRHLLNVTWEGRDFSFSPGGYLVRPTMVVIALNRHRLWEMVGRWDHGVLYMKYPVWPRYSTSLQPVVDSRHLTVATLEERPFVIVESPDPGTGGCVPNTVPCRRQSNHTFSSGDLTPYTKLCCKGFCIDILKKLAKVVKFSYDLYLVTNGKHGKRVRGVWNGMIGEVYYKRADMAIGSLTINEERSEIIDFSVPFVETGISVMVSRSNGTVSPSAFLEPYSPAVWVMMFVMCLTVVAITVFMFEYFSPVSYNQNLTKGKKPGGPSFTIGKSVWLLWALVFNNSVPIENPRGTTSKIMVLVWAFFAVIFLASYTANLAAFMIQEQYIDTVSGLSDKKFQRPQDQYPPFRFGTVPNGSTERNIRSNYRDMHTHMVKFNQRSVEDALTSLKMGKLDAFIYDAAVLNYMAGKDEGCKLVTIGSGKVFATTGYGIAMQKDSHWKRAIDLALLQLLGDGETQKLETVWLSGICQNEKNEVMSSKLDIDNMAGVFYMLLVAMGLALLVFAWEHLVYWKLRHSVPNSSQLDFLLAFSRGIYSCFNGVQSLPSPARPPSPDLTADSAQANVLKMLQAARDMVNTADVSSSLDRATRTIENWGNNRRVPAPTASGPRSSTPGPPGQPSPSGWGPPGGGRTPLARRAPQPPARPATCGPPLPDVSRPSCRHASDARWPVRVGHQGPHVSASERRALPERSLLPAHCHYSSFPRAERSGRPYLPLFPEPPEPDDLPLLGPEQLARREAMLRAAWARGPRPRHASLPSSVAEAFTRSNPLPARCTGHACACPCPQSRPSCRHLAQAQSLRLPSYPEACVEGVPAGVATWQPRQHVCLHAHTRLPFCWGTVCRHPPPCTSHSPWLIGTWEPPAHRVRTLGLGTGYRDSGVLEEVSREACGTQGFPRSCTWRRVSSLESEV
Sequence of Glutamate NMDA receptor; Grin1/Grin2a (Q00959 whole entry, other chains not shown): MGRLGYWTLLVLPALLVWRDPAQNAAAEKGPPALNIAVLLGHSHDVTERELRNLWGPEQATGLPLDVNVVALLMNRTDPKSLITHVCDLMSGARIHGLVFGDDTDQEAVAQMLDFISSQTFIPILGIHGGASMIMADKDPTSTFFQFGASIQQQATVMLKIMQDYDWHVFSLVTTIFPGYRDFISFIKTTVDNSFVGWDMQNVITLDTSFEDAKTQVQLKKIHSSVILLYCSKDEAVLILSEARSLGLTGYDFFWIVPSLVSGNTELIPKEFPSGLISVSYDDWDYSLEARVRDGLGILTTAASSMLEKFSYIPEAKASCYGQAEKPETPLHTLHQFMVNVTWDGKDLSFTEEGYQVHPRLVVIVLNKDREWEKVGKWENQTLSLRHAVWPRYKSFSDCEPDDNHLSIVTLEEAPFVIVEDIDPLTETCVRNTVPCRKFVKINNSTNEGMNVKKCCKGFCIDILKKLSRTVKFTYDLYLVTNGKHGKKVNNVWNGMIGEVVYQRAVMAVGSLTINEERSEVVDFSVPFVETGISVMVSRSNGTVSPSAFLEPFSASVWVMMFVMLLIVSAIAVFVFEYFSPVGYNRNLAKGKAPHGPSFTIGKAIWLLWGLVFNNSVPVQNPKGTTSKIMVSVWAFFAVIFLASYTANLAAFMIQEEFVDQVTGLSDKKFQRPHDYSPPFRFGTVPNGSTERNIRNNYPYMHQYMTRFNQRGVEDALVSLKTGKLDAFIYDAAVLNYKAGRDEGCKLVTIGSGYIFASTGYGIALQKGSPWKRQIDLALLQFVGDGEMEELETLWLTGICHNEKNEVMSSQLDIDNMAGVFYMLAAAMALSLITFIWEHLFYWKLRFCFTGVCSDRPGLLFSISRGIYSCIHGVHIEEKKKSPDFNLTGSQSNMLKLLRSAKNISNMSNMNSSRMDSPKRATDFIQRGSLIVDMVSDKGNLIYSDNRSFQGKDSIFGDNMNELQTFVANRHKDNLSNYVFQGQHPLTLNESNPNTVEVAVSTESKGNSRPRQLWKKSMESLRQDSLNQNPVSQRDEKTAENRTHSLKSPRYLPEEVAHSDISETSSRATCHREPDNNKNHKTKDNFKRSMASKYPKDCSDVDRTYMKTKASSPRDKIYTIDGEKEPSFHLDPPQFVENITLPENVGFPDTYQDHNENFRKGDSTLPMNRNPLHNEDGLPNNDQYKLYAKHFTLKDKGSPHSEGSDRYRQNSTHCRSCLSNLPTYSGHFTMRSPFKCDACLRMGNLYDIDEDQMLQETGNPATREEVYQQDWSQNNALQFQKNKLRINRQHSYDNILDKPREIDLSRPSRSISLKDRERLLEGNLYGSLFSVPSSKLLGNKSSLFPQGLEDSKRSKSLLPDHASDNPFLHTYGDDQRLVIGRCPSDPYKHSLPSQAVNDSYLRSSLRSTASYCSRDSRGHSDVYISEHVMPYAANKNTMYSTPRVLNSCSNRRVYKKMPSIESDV

What is called pIC50 is −log10 of the IC50, conventionally taken in molar units. With `C[C@@H]1CC[C@H]2[C@@H](CC[C@@H]3C[C@H](OS(=O)(=O)O)CC[C@@]32C)C1.c1ccncc1`, the pIC50 in experiment [1] was 4.96; in experiment [2], 4.86; in experiment [3], 4.95; in experiment [4] it was 5.51; in experiment [5], 4.08; in experiment [6], 4.81. In experiment [7], the pIC50 was 5.09. Take `COC(=O)[C@@]1(C)CC[C@H]2[C@@H](CC[C@@H]3C[C@H](OC(=O)CCC(=O)O)CC[C@@]32C)[C@@H]1C`: in experiment [6], the pIC50 is 4.20.

Take `COC[C@@]1(C)CC[C@H]2[C@@H](CC[C@@H]3C[C@H](OC(=O)CCC(=O)O)CC[C@@]32C)[C@@H]1C`: the pIC50 in experiment [6] was 4.53. For `COC(=O)[C@@]1(C)CC[C@H]2[C@@H](CC[C@@H]3C[C@H](OC(=O)CCC(=O)O)CC[C@@]32C)C1`, the pIC50 in experiment [6] was 4.06.

Take `COC[C@@]1(C)CC[C@H]2[C@@H](CC[C@@H]3C[C@H](OC(=O)CCC(=O)O)CC[C@@]32C)C1`: in experiment [6], the pIC50 was 4.48. Same read-out and setting: the result for `COC(=O)[C@@]1(C)CC[C@H]2[C@@H](CC[C@@H]3C[C@H](OS(=O)(=O)O)CC[C@@]32C)[C@@H]1C.c1ccncc1` reads 4.13. As for `COC[C@@]1(C)CC[C@H]2[C@@H](CC[C@@H]3C[C@H](OS(=O)(=O)O)CC[C@@]32C)C1.c1ccncc1`, the pIC50 in experiment [6] was 4.11.

Values taken from ChEMBL document CHEMBL3817753, “Neurosteroid-like Inhibitors of N-Methyl-d-aspartate Receptor: Substituted 2-Sulfates and 2-Hemisuccinates of Perhydrophenanthrene” (J Med Chem, 2016).
